# Experimental data taken from patent publication US8951527B2, “Radioprotectants targeting thrombospondin-1 and CD47” (The United States of America, as represented by the …, priority 2008, dated 2015).
# Columns and labels:
# [1] = system: B16F10 melanoma tumors; assay: Syngeneic B16F10 melanoma tumor growth after irradiation; assay type: in vivo, mouse; conditions: B16F10 in C57BL/6 mice
# Experimental: FIG. 19. CD47 suppression enhances re-growth delay in irradiated syngeneic B16 melanoma and squamous cell carcinoma tumors but increases radioresistance of B16 cells in vitro. C57BL/6 mice were injected with 1×10^6 B16 mouse melanoma cells into their right hindlimbs. Five days later, the mice were randomized into 4 groups (12 mice in each group) where they either received injections of CD47 morpholino (10 μM) in sterile PBS, PBS, or no injection. The two groups receiving injections were then subjected to radiation (10 Gy) to the effected hindlimb 48 hours later. The other two groups served as controls and consisted of tumor alone or tumor subjected to only the morpholino. Tumors were followed post-radiation for 30 days, measuring their volume every 6 days (FIG. 19A). Results are presented as the mean±SD of 12 mice in each treatment group and are representative of 3 independent studies. These same experimental treatment conditions were tested using another syngeneic tumor cell line (SCC VII) in C3H mice and followed for 15 days where similar results were found after injecting 1.5×10^5 cells (FIG. 19B). Results are presented as the mean±SD of 10 mice (C3II) in each treatment group and are representative of 3 independent studies. B16 mouse melanoma cells were plated on 96-well plates in standard growth medium. Cells were treated with peptide 7N3 or CD47 morpholino and received a radiation dose of 10 Gy (FIG. 19C; *p<0.05, #p<0.01). Cell (mitochondrial) viability was measured 48 hours post radiation using the MTT assay.
# Tumor Establishment and Irradiation. C57 B16 mice were injected in the right hindlimb with 1×10^6 B16F10 melanoma cells, and tumors were allowed to establish for 1 week. After tumor incorporation, the hind limbs were treated with either the CD47 morpholino or sterile phosphate buffered saline (PBS). Forty-eight hours later, all mice were subjected to right hind limb irradiation (10 Gy). The mice were observed and tumor size determined twice a week by the same individual until lesion size necessitated animal euthanasia. […]
# [2] = system: C57BL/6 mice; assay: Laser Doppler hind limb blood flow after NO challenge, 8 weeks post-radiation; assay type: in vivo, mouse; conditions: intramuscular 10 μM 48 hours before 25 Gy, 8 weeks post-injury
# Experimental: FIG. 18. Targeting CD47 Protects Composite Tissue From Radiation-Induced Vascular Damage. Age matched male C57BL/6 mice received 25 Gy to both hind limbs. Forty-eight hours prior to irradiation the right hind limb was treated by direct intra-muscular injection with the CD47 morpholino (750 μl at 10 μM concentration). The opposite (control) limb received nothing. Eight weeks post-radiation hind limb blood flow changes to a nitric oxide (NO) challenge (DEA/NO 100 nmol/g body weight via rectal instillation) was assessed via Laser Doppler imaging (FIG. 18A). In other experiments, the opposite (control) limb received injection of either missense oligonucleotide or sterile PBS with similar results (not shown). Laser Doppler was performed under 1.5% isoflurane inhalation anesthesia with animal core temperature held constant at 36.5° C. […]
# Laser Doppler analysis: Hind limb flow was measured using laser Doppler imaging (MoorLD1-2λ, Moor Instruments, Devon, England). […] Core temperature was monitored by rectal probe and was further controlled with a heat lamp. […] After equilibration to the experimental set-up baseline, hind limb blood flow was measured. […] Results are expressed as the change percent control from baseline of the ROI.
# Laser Doppler Analysis: Hind limb blood flow was measured using laser Doppler imaging as described above. […]
# [3] = system: HUVEC; assay: HUVEC proliferation post-radiation (BrdU incorporation); assay type: cell-based, human; conditions: treated 48 hours before 10 Gy, over 1 week (FIG. 14)
# Experimental: FIG. 14. TSP1 and CD47 antibodies or antisense suppression of CD47 maintain proliferation of irradiated HUVEC. HUVEC were plated in 96-well plates in growth medium and treated with CD47 morpholino (FIG. 14A; *p<0.05, #p<0.01) TSP1, or CD47 antibodies (FIG. 14B; *p<0.05, #p<0.01) and exposed to 10 Gy irradiation 48 hours later. Cell proliferation at the indicated times post-radiation was determined by intracellular BrdU incorporation. Experiments were repeated 3 times, and results presented as the mean±SD.
# FIG. 15. HUVEC protected by radioprotective agents are both viable and proliferate at a better rate than untreated cells in culture. Proliferation was assessed by quantifying incorporation of bromodeoxyuridine (BrdU) into newly synthesized DNA using a BrdU Cell Proliferation Assay. HUVEC were seeded into 96 well plates for 24 hours at 37° C., then treated with either antibody A6.1 or B6H12 or peptide 7N3. The treated cells were irradiated at 40 Gy 1 hour later. Control and irradiated plates were assayed for BrdU uptake over 96 hours post-radiation. The assay was performed according to the manufacturer's protocol, and the plates were read at 420 nm.
# Cell proliferation assay: Proliferation was assessed by quantifying incorporation of bromodeoxyuridine (BrdU) into newly synthesized DNA using a BrdU Cell Proliferation Assay (Calbiochem, La Jolla, Calif.). Primary murine wild type, TSP1, TSP2, and CD47 null lung endothelial cells were seeded into 96 well plates at 5×10^4 cells/well density. After 24 hours incubation at 37° C. treatment groups were irradiated at 40 Gy. Control and irradiated plates were assayed for BrdU uptake over 24 hours starting at 48 to 168 hours post-radiation. The assay was performed according to the manufacturer's protocol, and the plates were read at 420 nm.
# Proliferative capacities were also determined in endothelial cells exposed to high doses of radiation of 40 Gy. […] The assay was performed according to the manufacturer's protocol, and the plates were read at 420 nm.
sequence,measurement,setting,value
"CGTCACAGGCAGGACCCACTGCCCA (all phosphorodiamidate morpholino (PMO)) [CD47 morpholino, CD47 targeting morpholino oligonucleotide]",tumor ablation / re-growth delay with irradiation,[1]; morpholino 48 hours before 10 Gy,dramatically increased tumor ablation
same,tumor growth without irradiation,[1]; morpholino alone,only slightly delayed tumor growth
same,normal tissue injury in tumor-bearing irradiated limbs,[1]; morpholino then 10 Gy,minimal alopecia and no other morphologic or histologic evidence of tissue injury
same,vascular perfusion in response to DEA/NO challenge (laser Doppler),[2],enhanced vascular perfusion
same,proliferation (BrdU incorporation / DNA synthesis) after 10 Gy,[3],maintained proliferation
